Read-outs that look alike come from different tables or passages of the source.
Legend:
[1] = In vitro injection of substrate and sodium permanganate solutions into a beaker, reaction temperature by thermocouple; assay type: physicochemical; settings: for Average maximum temperature increase (° C.) Permanganate first / Average peak temperature (° C.) Permanganate first / Average maximum temperature increase (° C.) Simultaneous / Average peak temperature (° C.) Simultaneous / Average maximum temperature increase (° C.) Substrate first / Average peak temperature (° C.) Substrate first: substrate 1M/1 mL; for average maximum temperature: simultaneous injections, substrate 180 g/L, permanganate (1M, 1 mL)
Procedure: In vitro studies: All reagents were obtained from Sigma-Aldrich Chemical Co. (St. Louis, Mo.) unless otherwise noted. […] Exemplary reaction products of glycerol oxidation by permanganate include tartronic acid and glyceric acid (FIG. 8). Reaction temperature was measured by a thermocouple probe (type T MT-29/1; Physitemp Instruments, Clifton, N.J.) placed at the center of the beaker, with the tip submerged underneath the surface of the mixed solutions. Temperature recordings were made by a T-type thermocouple thermometer (Digi-Sense; Cole-Parmer, Vernon Hills, Ill.) at time intervals of 1 to 3 seconds from the onset of injections until the temperature dropped below 40° C. A series of different permanganate volumes (1, 2, and 3 mL) and concentrations (1 and 2M) were tested in order to study the effects of volume and concentration on temperature. Selected experiments were repeated with glucose, sucrose, maltodextrin (4-7 glucose unit average), and dextrin as substrates. The remaining substrates were different polysaccharides (starch, cellulose and glycogen) and polyvinyl alcohol. See, FIG. 9. All were used as 180 g/L (carbohydrates based on glucose) solutions and/or suspensions rather than expressing concentration in molarity due to their polymeric nature.

HuH-7 cells [2] = system: HuH-7 cells
[3] = system: osteosarcoma cell line 143B; assay type: cell-based
143B cells = assay: DNA fragmentation assay, 143B; assay type: cell-based, human
Procedure: (§1) Cell lysates were incubated at 37° C. for 3 hours, and the samples were centrifuged at 13,000 rpm for 30 minutes. Supernatants containing DNA were extracted with phenol-chloroform and precipitated with ethanol. Equal amounts of DNA were resolved on a 2% agarose gel containing ethidium bromide, and bands corresponding to nucleosomes were visualized under ultra violet light.

MCF-7 cells = assay: DNA fragmentation assay, MCF-7; assay type: cell-based, human
Procedure: as §1

HepG2 cells = settings: Castañeda and Kinne 2000; cited from earlier work
[4] = system: breast cancer cell line MCF-7; assay: MTT cell viability assay, MCF-7
Procedure: Cells were plated in 96-well plates for the MTT assays at a concentration of 3×10^5 cells per well overnight prior to performing the assays.
Cell viability assay: Cell viability assays were performed using as a substrate the MTT reagent 3-(4,5-Dimethylthiazol-2-yl)-2,5-diphenyltetrazolium bromide (Sigma-Aldrich, St. Louis, Mo.) at a concentration of 10 μg/100 μl. Growth medium was aspirated from the wells and cells were washed twice with 1×PBS. […] One hundred μl of MTT substrate was added to each well in a 96-well plate and plates were incubated for 1 hour at 37° C. Cells were then gently washed in 1×PBS and 100 μl stop solution (acidified phenol) was added to each well. Plates were incubated again at 37° C. for 30 minutes and the colorimetric changes in the cells were measured using a plate reader at 570 nm. Only the live viable cells are able to convert yellow colored MTT reagent into purple colored formazan.

HuH-7 cells [5] = assay: DNA fragmentation assay, HuH-7; assay type: cell-based, human; settings: 1 M urea for 2 hours
Procedure: as §1

[6] = NaMnO4 (1M/1 mL), permanganate first
[7] = NaMnO4 (1M/1 mL), simultaneous injection
[8] = NaMnO4 (1M/1 mL), substrate first
[9] = NaMnO4 (1M/2 mL), permanganate first
[10] = NaMnO4 (1M/2 mL), simultaneous injection
[11] = NaMnO4 (1M/2 mL), substrate first
[12] = NaMnO4 (1M/3 mL), permanganate first
[13] = NaMnO4 (1M/3 mL), simultaneous injection
[14] = NaMnO4 (1M/3 mL), substrate first
[15] = NaMnO4 (2M/1 mL), permanganate first
[16] = NaMnO4 (2M/1 mL), simultaneous injection
[17] = NaMnO4 (2M/1 mL), substrate first
[18] = 3% ethanol, exposure for 2 hours

Average maximum temperature increase (° C.) Permanganate first [1, 6] [°C] | Average peak temperature (° C.) Permanganate first [1, 6] [°C] | Average maximum temperature increase (° C.) Simultaneous [1, 7] [°C] | Average peak temperature (° C.) Simultaneous [1, 7] [°C] | Average maximum temperature increase (° C.) Substrate first [1, 8] [°C] | Average peak temperature (° C.) Substrate first [1, 8] [°C] | Average maximum temperature increase (° C.) Permanganate first [1, 9] [°C] | Average peak temperature (° C.) Permanganate first [1, 9] [°C] | Average maximum temperature increase (° C.) Simultaneous [1, 10] [°C] | Average peak temperature (° C.) Simultaneous [1, 10] [°C] | Average maximum temperature increase (° C.) Substrate first [1, 11] [°C] | Average peak temperature (° C.) Substrate first [1, 11] [°C] | Average maximum temperature increase (° C.) Permanganate first [1, 12] [°C] | Average peak temperature (° C.) Permanganate first [1, 12] [°C] | Average maximum temperature increase (° C.) Simultaneous [1, 13] [°C] | Average peak temperature (° C.) Simultaneous [1, 13] [°C] | Average maximum temperature increase (° C.) Substrate first [1, 14] [°C] | Average peak temperature (° C.) Substrate first [1, 14] [°C] | Average maximum temperature increase (° C.) Permanganate first [1, 15] [°C] | Average peak temperature (° C.) Permanganate first [1, 15] [°C] | Compound | further results
37.6 | 59.3 | 41.4 | 63.9 | 48.4 | 71.1 | 48.5 | 70.3 | 66.3 | 89.1 | 64.4 | 86.7 | 55.3 | 77.9 | 66.6 | 90.6 | 67.5 | 90.3 | 75.4 | 97.0 | OCC(O)CO [Glycerol, glycerol] | Average maximum temperature increase (° C.) Simultaneous [1, 16]: 74.5 °C; Average peak temperature (° C.) Simultaneous [1, 16]: 97.4 °C; Average maximum temperature increase (° C.) Substrate first [1, 17]: 76.9 °C; Average peak temperature (° C.) Substrate first [1, 17]: 99.1 °C; average maximum temperature, permanganate first ([1]; volume of substrate (1M) raised to 2 mL, permanganate 1M, permanganate first): 54.1 °C; average maximum temperature, simultaneous ([1]; volume of substrate (1M) raised to 2 mL, permanganate 1M, simultaneous injection): 53.1 °C; average maximum temperature, substrate first ([1]; volume of substrate (1M) raised to 2 mL, permanganate 1M, substrate first): 56.7 °C
24.9 | 46.4 | 33.5 | 56.8 | 37.1 | 58.9 | 42.1 | 64.9 | 51.0 | 73.6 | 60.0 | 82.1 | 51.5 | 74.6 | 66.9 | 90.1 | 63.0 | 85.1 | 76.7 | 100.0 | OC[C@H]1O[C@@](CO)(O[C@H]2O[C@H](CO)[C@@H](O)[C@H](O)[C@H]2O)[C@@H](O)[C@@H]1O [Sucrose, sucrose] | average maximum temperature, permanganate-first ([1]; concentration of the sucrose solution (1 mL) raised to 2M, permanganate-first): 100.0 °C; average maximum temperature, simultaneous ([1]; concentration of the sucrose solution (1 mL) raised to 2M, simultaneous injection): 100.2 °C; average maximum temperature, sucrose-first ([1]; concentration of the sucrose solution (1 mL) raised to 2M, sucrose-first): 99.8 °C; Average maximum temperature increase (° C.) Simultaneous [1, 16]: 77.0 °C; Average peak temperature (° C.) Simultaneous [1, 16]: 100.2 °C; Average maximum temperature increase (° C.) Substrate first [1, 17]: 77.7 °C; Average peak temperature (° C.) Substrate first [1, 17]: 99.8 °C; average temperature increase, permanganate-first ([1]; volume of sucrose solution increased to 2 mL, permanganate-first): 44.6 °C; average temperature increase, simultaneous ([1]; volume of sucrose solution increased to 2 mL, simultaneous injection): 45.9 °C; average temperature increase, sucrose-first ([1]; volume of sucrose solution increased to 2 mL, sucrose-first): 51.0 °C
– | – | – | – | – | – | – | – | – | – | – | – | – | – | – | – | – | – | – | – | CCO [ethanol] | cell death (HuH-7 cells [2]; 2% ethanol, 6 hours of exposure): 50%; cytotoxicity (HuH-7 cells [2]; 4% ethanol, 2 hours): lethal; cytotoxicity (HuH-7 cells [2]; ethanol 3% (v/v)): toxic; cytotoxicity (HuH-7 cells [2]; ethanol 5% (v/v)): toxic; cells died ([3]; 1% ethanol, 24 hour exposure): > 90%; cell death [3, 18]: > 90%; apoptosis by DNA laddering (143B cells; 10% ethanol for 6 hours): A similar result; apoptosis by DNA laddering (MCF-7 cells; 10% ethanol for 6 hours): A similar result; apoptosis (HepG2 cells): induces apoptosis; cells died ([4]; 1% ethanol, 24 hour exposure): > 90%; cell death [4, 18]: > 90%
– | – | – | – | – | – | – | – | – | – | – | – | – | – | – | – | – | – | – | – | NC(N)=O [urea] | cells survived (HuH-7 cells [2]; 250 mM urea, 24 hours): 50%; cells survived (HuH-7 cells [2]; 750 mM urea, 6 hour exposure): about 50%; apoptosis by DNA laddering (HuH-7 cells [5]): induced apoptosis; apoptosis by DNA laddering (143B cells; 1 M urea for 2 hours): induced apoptosis; apoptosis by DNA laddering (MCF-7 cells; 1 M urea for 2 hours): induced apoptosis
– | – | – | – | – | – | – | – | – | – | – | – | – | – | – | – | – | – | – | – | dextrin | average maximum temperature [1]: 51.1 °C
– | – | – | – | – | – | – | – | – | – | – | – | – | – | – | – | – | – | – | – | maltodextrin | average maximum temperature [1]: 42.5 °C
